Tested on: 931267-113-T-J1-PDC multicell spheroid viability
Assay: Anticancer human tumor 931267-113-T-J1-PDC patient-derived colon adenocarcinoma cell line growth inhibition [PI3K]
Conditions: for IC50: curve of first compound; for viability, T/C: stronger effect = lower value; active means viability on the fitted dose curve at most 10% of control; inactive means the rest
From the text: Combinatorial screen of targeted agents with the PI3K inhibitors inavolisib, alpelisib, duvelisib, and copanlisib in multi-cell type tumor spheroids
A high-throughput screen of multi-cell type tumor spheroids was designed to identify active combinations of targeted small molecules and PI3K pathway inhibitors. Complex spheroids include a stromal component modeled by human endothelial cells (HUVEC) and fibroblasts modeled by human mesenchymal stem cells (MSCs). The concentration ranges selected for each drug and investigational agent were based upon clinically achievable concentrations if the clinical Cmax of the agent was known.
Compounds. The drugs and investigational agents: inavolisib (NSC800729), alpelisib (NSC765974), duvelisib (NSC772469), copanlisib (NSC816437), ipatasertib (NSC767898), afuresertib (NSC778305), talazoparib (NSC767125), sapanisertib (NSC764658), selumetinib (NSC741078), tovorafenib (DAY101, NSC766906), vemurafenib (NSC761431), ravoxertinib (NSC781343), sotorasib (NSC818433), MRTX1133 (NSC 836407), abemaciclib (NSC 768073), palbociclib (NSC758247), venetoclax (NSC 766270), SY5609 (NSC837396), enzalutamide (NSC755605), and darolutamide (NSC825331), were obtained from the National Cancer Institute (NCI) Developmental Therapeutics Program Chemical Repository. The FDA-approved anticancer drug set is available from the NCI Developmental Therapeutics Program. […] The stock solutions were prepared in dimethyl sulfoxide (DMSO, Sigma-Aldrich, St. Louis, MO, cat. D2650) at 800-fold the tested concentration and stored at -70 degrees C prior to their use. All drugs and investigational agents were tested over a range starting from a high concentration at or near the clinical Cmax and decreasing in half-log increments. If the clinical Cmax for an agent had not been determined, the highest concentration tested was 10 microM.
Cell Culture. All cells were maintained in an incubator at 37 degrees C and 5% CO2 with 95% humidity. The PDC lines were cultured according to standard operating procedures established by the NCI PDMR (https://pdmr.cancer.gov/sops/default.htm). All PDCs were thawed and cultured in Matrigel-coated flasks prepared with a working solution of 1X Ham's F-12 nutrient mix, without supplementation (Invitrogen, Waltham, MA, cat. 11765054), 100 U/mL penicillin-streptomycin (Invitrogen, cat. 15140122), and 2.5% Matrigel (Corning Inc., Corning, NY, cat. 354248) for the first three passages. The 354836-022-R-J1-PDC, 475296-252-R-J1-PDC, and 997726-040-R-J2-PDC lines were cultured in 6A media, which includes advanced DMEM/F-12 (Thermo Fisher Scientific, cat. 12634028), 10 mM HEPES (Thermo Fisher Scientific, cat. 15630080), 1X GlutaMAX supplement (Thermo Fisher Scientific, cat. 35050061), 0.1 mg/mL primocin (InvivoGen, San Diego, CA, cat. ant-pm-2), 10% defined fetal bovine serum, heat inactivated (HyClone Laboratories Inc., Logan, UT, cat. SH30070.03HI), 50% L-WRN conditioned media (ATCC, cat. CRL-3276), 1.25 mM N-Acetyl-L-cysteine (Sigma-Aldrich, cat. A9165), 10 mM nicotinamide (Sigma-Aldrich, cat. N0636), 1X B-27 supplement (Thermo Fisher Scientific, cat. 17504044), 1X N-2 supplement (Thermo Fisher Scientific, cat. 17502048), and 10 microM Y-27632 dihydrochloride (Tocris Bioscience, Bristol, United Kingdom, cat. 1254). The 624824-186-R-J2-PDC line was cultured in 6C/Colon 1B media, which includes all 6A media components plus 50 ng/mL human EGF recombinant protein (Thermo Fisher Scientific, cat. PHG0311). […]

[1] = second compound 0.00316 µM, first compound 0.0316 µM
[2] = second compound 0.00316 µM, first compound 0.1 µM
[3] = second compound 0.00316 µM, first compound 0.316 µM
[4] = second compound 0.00316 µM, first compound 1 µM
[5] = second compound 0.00316 µM, first compound 3.16 µM
[6] = second compound 0.00316 µM, first compound 10 µM
[7] = second compound 0.01 µM, first compound 0.0316 µM
[8] = second compound 0.01 µM, first compound 0.1 µM
[9] = second compound 0.01 µM, first compound 0.316 µM
[10] = second compound 0.01 µM, first compound 1 µM
[11] = second compound 0.01 µM, first compound 3.16 µM
[12] = second compound 0.01 µM, first compound 10 µM
[13] = second compound 0.0316 µM, first compound 0.0316 µM
[14] = second compound 0.0316 µM, first compound 0.1 µM
[15] = second compound 0.0316 µM, first compound 0.316 µM
[16] = second compound 0.0316 µM, first compound 1 µM
[17] = second compound 0.0316 µM, first compound 3.16 µM
[18] = second compound 0.0316 µM, first compound 10 µM
[19] = second compound 0.1 µM, first compound 0.0316 µM
[20] = second compound 0.1 µM, first compound 0.1 µM
[21] = second compound 0.1 µM, first compound 0.316 µM
[22] = second compound 0.1 µM, first compound 1 µM
[23] = second compound 0.1 µM, first compound 3.16 µM
[24] = second compound 0.1 µM, first compound 10 µM
[25] = second compound 0.316 µM, first compound 0.0316 µM
[26] = second compound 0.316 µM, first compound 0.1 µM
[27] = second compound 0.316 µM, first compound 0.316 µM
[28] = second compound 0.316 µM, first compound 1 µM
[29] = second compound 0.316 µM, first compound 3.16 µM
[30] = second compound 0.316 µM, first compound 10 µM
[31] = second compound 1 µM, first compound 0.0316 µM
[32] = second compound 1 µM, first compound 0.1 µM
[33] = second compound 1 µM, first compound 0.316 µM
[34] = second compound 1 µM, first compound 1 µM
[35] = second compound 1 µM, first compound 3.16 µM
[36] = second compound 1 µM, first compound 10 µM
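Further: viability read 7 days after compound addition.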

CC1(C)CCC(CN2CCN(c3ccc(C(=O)NS(=O)(=O)c4ccc(NCC5CCOCC5)c([N+](=O)[O-])c4)c(Oc4cnc5[nH]ccc5c4)c3)CC2)=C(c2ccc(Cl)cc2)C1 + CC(Nc1ccc2c(c1)OCCn1cc(N3C(=O)OCC3C(F)F)nc1-2)C(N)=O
inactive: viability, T/C [1] 91.7% | viability, T/C [2] 102% | viability, T/C [3] 105% | viability, T/C [4] 106% | viability, T/C [5] 94.3% | viability, T/C [6] 17.5% | viability, T/C [7] 104% | viability, T/C [8] 98.5% | viability, T/C [9] 97.5% | viability, T/C [10] 107% | viability, T/C [11] 96.2% | viability, T/C [12] 19.3% | viability, T/C [13] 112% | viability, T/C [14] 104% | viability, T/C [15] 95.8% | viability, T/C [16] 91.4% | viability, T/C [17] 87.4% | viability, T/C [18] 14.5% | viability, T/C [19] 94.2% | viability, T/C [20] 88.2% | viability, T/C [21] 91.5% | viability, T/C [22] 97.9% | viability, T/C [23] 78.2% | viability, T/C [24] 13.7% | viability, T/C [25] 81.7% | viability, T/C [26] 89% | viability, T/C [27] 80.2% | viability, T/C [28] 75.4% | viability, T/C [29] 73% | viability, T/C [30] 13.6% | viability, T/C [31] 78.5% | viability, T/C [32] 77.1% | viability, T/C [33] 73.9% | viability, T/C [34] 69.7% | viability, T/C [35] 63.3% | viability, T/C [36] 14.1%
5.22 µM: IC50 (second compound 0.1 µM)
4.21 µM: IC50 (second compound 1 µM)
4.86 µM: IC50 (second compound 0.316 µM)
6.16 µM: IC50 (second compound 0.00316 µM)
6.33 µM: IC50 (second compound 0.01 µM)
5.56 µM: IC50 (second compound 0.0316 µM)

C[C@@H](NC(=O)c1ncnc(N)c1Cl)c1ncc(C(=O)Nc2cc(C(F)(F)F)c(Cl)cn2)s1 + CC(Nc1ccc2c(c1)OCCn1cc(N3C(=O)OCC3C(F)F)nc1-2)C(N)=O
4.87 µM: IC50 (second compound 1 µM)
> 10 µM: IC50 (second compound 0.00316 µM) | IC50 (second compound 0.01 µM) | IC50 (second compound 0.0316 µM)
7.88 µM: IC50 (second compound 0.316 µM)
inactive: viability, T/C [1] 114% | viability, T/C [2] 129% | viability, T/C [3] 110% | viability, T/C [4] 121% | viability, T/C [5] 90.8% | viability, T/C [6] 75.3% | viability, T/C [7] 116% | viability, T/C [8] 108% | viability, T/C [9] 111% | viability, T/C [10] 118% | viability, T/C [11] 101% | viability, T/C [12] 66.7% | viability, T/C [13] 99.7% | viability, T/C [14] 124% | viability, T/C [15] 119% | viability, T/C [16] 110% | viability, T/C [17] 97.9% | viability, T/C [18] 63.6% | viability, T/C [19] 116% | viability, T/C [20] 93.3% | viability, T/C [21] 101% | viability, T/C [22] 95.9% | viability, T/C [23] 78% | viability, T/C [24] 46.4% | viability, T/C [25] 94% | viability, T/C [26] 97.5% | viability, T/C [27] 96.4% | viability, T/C [28] 87% | viability, T/C [29] 75.2% | viability, T/C [30] 43.5% | viability, T/C [31] 83% | viability, T/C [32] 88.8% | viability, T/C [33] 80.7% | viability, T/C [34] 77.2% | viability, T/C [35] 62.3% | viability, T/C [36] 29.7%
8.97 µM: IC50 (second compound 0.1 µM)

Cn1ncnc1[C@H]1c2n[nH]c(=O)c3cc(F)cc(c23)N[C@@H]1c1ccc(F)cc1 + CC(Nc1ccc2c(c1)OCCn1cc(N3C(=O)OCC3C(F)F)nc1-2)C(N)=O
inactive: viability, T/C (second compound 0.00316 µM, first compound 0.000316 µM) 98.5% | viability, T/C (second compound 0.00316 µM, first compound 0.001 µM) 113% | viability, T/C (second compound 0.00316 µM, first compound 0.00316 µM) 104% | viability, T/C (second compound 0.00316 µM, first compound 0.01 µM) 111% | viability, T/C [1] 103% | viability, T/C [2] 102% | viability, T/C (second compound 0.01 µM, first compound 0.000316 µM) 114% | viability, T/C (second compound 0.01 µM, first compound 0.001 µM) 108% | viability, T/C (second compound 0.01 µM, first compound 0.00316 µM) 91.5% | viability, T/C (second compound 0.01 µM, first compound 0.01 µM) 114% | viability, T/C [7] 104% | viability, T/C [8] 108% | viability, T/C (second compound 0.0316 µM, first compound 0.000316 µM) 109% | viability, T/C (second compound 0.0316 µM, first compound 0.001 µM) 96.9% | viability, T/C (second compound 0.0316 µM, first compound 0.00316 µM) 105% | viability, T/C (second compound 0.0316 µM, first compound 0.01 µM) 103% | viability, T/C [13] 108% | viability, T/C [14] 102% | viability, T/C (second compound 0.1 µM, first compound 0.000316 µM) 101% | viability, T/C (second compound 0.1 µM, first compound 0.001 µM) 87.5% | viability, T/C (second compound 0.1 µM, first compound 0.00316 µM) 86.1% | viability, T/C (second compound 0.1 µM, first compound 0.01 µM) 89.1% | viability, T/C [19] 95.2% | viability, T/C [20] 87% | viability, T/C (second compound 0.316 µM, first compound 0.000316 µM) 95.6% | viability, T/C (second compound 0.316 µM, first compound 0.001 µM) 89.6% | viability, T/C (second compound 0.316 µM, first compound 0.00316 µM) 81.2% | viability, T/C (second compound 0.316 µM, first compound 0.01 µM) 80.4% | viability, T/C [25] 85.1% | viability, T/C [26] 94.1% | viability, T/C (second compound 1 µM, first compound 0.000316 µM) 78.2% | viability, T/C (second compound 1 µM, first compound 0.001 µM) 82% | viability, T/C (second compound 1 µM, first compound 0.00316 µM) 80.7% | viability, T/C (second compound 1 µM, first compound 0.01 µM) 76.9% | viability, T/C [31] 84.6% | viability, T/C [32] 73.6%
> 0.1 µM: IC50 (second compound 0.00316 µM) | IC50 (second compound 0.01 µM) | IC50 (second compound 0.0316 µM) | IC50 (second compound 0.1 µM) | IC50 (second compound 0.316 µM) | IC50 (second compound 1 µM)

— PubChem BioAssay AID1963970 (Molecular Pharmacology Branch, DTP, NCI, 2024)
